pIC50: −log10 of the molar value.
How the values were obtained:
[1] = test system: MV4-11 human acute myeloid leukemia cell with FLT3-ITD mutation; assay: MV4-11 cell proliferation assay (CellTiter 96); type: cell-based; conditions: Homo sapiens, MV4-11, 72 h, MV4-11 cells, 72 hours treatment, CellTiter96; read-out: anti-proliferation activity MV4-11 (FLT3-ITD), IC50 ranking
How it was run: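 Cells seeded at 6500/well in IMDM with 10% heat-inactivated FBS, left overnight at 37 °C, 5% CO2, then exposed to increasing compound concentrations for 72 h. Viability read as absorbance at 490 nm after 2–4 h with CellTiter96 AQueous One reagent.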

[2] = test system: THP-1 human acute monocytic leukemia cell with NRAS G12D mutation; assay: THP-1 cell proliferation assay (counter screen); type: cell-based; conditions: Homo sapiens, THP-1 cells, 72 hours treatment, CellTiter96, read-out: anti-proliferation activity THP-1 NRAS N12D, IC50 ranking
How it was run: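 THP-1 cells (NRAS G12D, growth independent of class III RTK signaling) seeded at 5000 cells/well overnight, then exposed to increasing compound concentrations for 72 h at 37° C, 5% CO2. Viability read by CellTiter96 AQueous One reagent (2–4 h) as absorbance at 490 nm.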

[3] = test system: HCC827 NSCLC cell with EGFR exon 19 deletion mutation; assay: HCC827 cell proliferation assay (counter screen); type: cell-based, human; conditions: Homo sapiens, HCC827 cells, 72 hours treatment, CellTiter96, read-out: anti-proliferation activity HCC827 EGFR Exon19 del, IC50 ranking
How it was run: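 HCC827 cells (EGFR exon 19 deletion) were seeded at 8000 cells/well in RPMI1640 with 10% FBS, then exposed to increasing compound concentrations for 72 h at 37 °C. Viability was read by CellTiter96 AQueous One (MTS), absorbance 490 nm after 2–4 h.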

Question: Which results are given for `Cn1ncc2ccc(-c3n[nH]c4c3Cc3sc(-c5csc(C(=O)N6CCOCC6)c5)cc3-4)cc21` [Compound 48, (4-(3-(1-methyl-1H-indazol-6-yl)-1,4-dihydro-thieno[2′,3′:4,5]cyclopenta [1,2-c]pyrazol-6-yl)thiophen-2-yl) (morpholino)methanone]?
Answer: pIC50 [1]: > 7.52; pIC50 [2]: < 5.00; pIC50 [3]: < 5.00

Question: With `CN(C)C(=O)c1ccc(-c2cc3c(s2)Cc2c(-c4ccc5cnn(C)c5c4)n[nH]c2-3)cc1` [Compound 49, N,N-dimethyl-4-(3-(1-methyl-1H-indazol-6-yl)-1,4-dihydrothieno [2′,3′:4,5]cyclopenta [1,2-c]pyrazol-6-yl) benzamide] as the molecule, how does the pIC50 [1] read?
Answer: > 7.52

Question: And the pIC50 [2]?
Answer: < 5.00

Question: And the pIC50 [3]?
Answer: < 5.00

Question: `CN(C)S(=O)(=O)c1ccc(-c2cc3c(s2)Cc2c(-c4ccc5cnn(C)c5c4)n[nH]c2-3)cc1` [Compound 50, N,N-dimethyl-4-(3-(1-methyl-1H-indazol-6-yl)-1,4-dihydrothieno [2′,3′:4,5]cyclopenta [1,2-c]pyrazol-6-yl) benzenesulfonamide] was tested. Which pIC50 [1] did it give?
Answer: > 7.52

Question: What about the pIC50 [2] of the same molecule?
Answer: < 5.00

Question: And the pIC50 [3]?
Answer: < 5.00

Question: With `Cn1ncc2ccc(-c3n[nH]c4c3Cc3sc(-c5ccc(CN6CCOCC6)s5)cc3-4)cc21` [Compound 51, 4-((5-(3-(1-methyl-1H-indazol-6-yl)-1,4-dihydro-thieno[2′,3′:4,5]cyclopenta [1,2-c]pyrazol-6-yl)thiophen-2-yl)methyl) morpholine] as the molecule, how does the pIC50 [1] read?
Answer: > 7.52

Question: And the pIC50 [2]?
Answer: < 5.00

Question: And the pIC50 [3]?
Answer: < 5.00

Question: With `Cn1ncc2ccc(-c3n[nH]c4c3Cc3sc(-c5csc(CN6CCOCC6)c5)cc3-4)cc21` [Compound 52, 4-((4-(3-(1-methyl-1H-indazol-6-yl)-1,4-dihydro-thieno[2′,3′:4,5]cyclopenta [1,2-c]pyrazol-6-yl)thiophen-2-yl)methyl) morpholine] as the molecule, how does the pIC50 [1] read?
Answer: > 7.52

Question: And the pIC50 [2]?
Answer: < 5.00

Question: What about the pIC50 [3] of the same molecule?
Answer: < 5.00

Question: `Cn1ncc2ccc(-c3n[nH]c4c3Cc3sc(-c5cc(F)c(CN6CCOCC6)c(F)c5)cc3-4)cc21` [Compound 53, 4-(2,6-difluoro-4-(3-(1-methyl-1H-indazol-6-yl)-1,4-dihydrothieno [2′,3′:4,5]cyclopenta [1,2-c]pyrazol-6-yl)benzyl)morpholine] was tested. Which pIC50 [1] did it give?
Answer: 7.00 to 7.52

Question: What about the pIC50 [2] of the same molecule?
Answer: < 5.00

Question: What about the pIC50 [3] of the same molecule?
Answer: < 5.00

Question: Which results are given for `C[C@@H]1CN(Cc2ccc(-c3cc4c(s3)Cc3c(-c5ccc6cnn(C)c6c5)n[nH]c3-4)cc2)C[C@H](C)O1` [Compound 54, (2S,6R)-2,6-dimethyl-4-(4-(3-(1-methyl-1H-indazol-6-yl)-1,4-dihydro-thieno[2′,3′:4,5]cyclopenta [1,2-c]pyrazol-6-yl)benzyl)morpholine]?
Answer: pIC50 [1]: > 7.52; pIC50 [2]: < 5.00; pIC50 [3]: < 5.00

Question: With `Cn1ncc2ccc(-c3n[nH]c4c3Cc3sc(-c5cc(C(=O)N6CCOCC6)ccn5)cc3-4)cc21` [Compound 56, (2-(3-(1-methyl-1H-indazol-6-yl)-1,4-dihydro-thieno[2′,3′:4,5]cyclopenta [1,2-c]pyrazol-6-yl)pyridin-4-yl)(morpholino) methanone] as the molecule, how does the pIC50 [1] read?
Answer: > 7.52

Question: And the pIC50 [2]?
Answer: < 5.00

Question: What about the pIC50 [3] of the same molecule?
Answer: < 5.00

Question: How did the pIC50 [1] turn out when `Cn1ncc2ccc(-c3n[nH]c4c3Cc3sc(C5=CCN(C(=O)N6CCOCC6)CC5)cc3-4)cc21` [Compound 57, (4-(3-(1-methyl-1H-indazol-6-yl)-1,4-dihydro-thieno[2′,3′:4,5]cyclopenta [1,2-c]pyrazol-6-yl)-3,6-dihydropyridin-1(2H)-yl) (morpholino)methanone] was run?
Answer: > 7.52

Question: What about the pIC50 [2] of the same molecule?
Answer: < 5.00

Question: And the pIC50 [3]?
Answer: < 5.00

Question: Which results are given for `Cn1ncc2ccc(-c3n[nH]c4c3Cc3sc(C5CCN(C(=O)OC(C)(C)C)CC5)cc3-4)cc21` [Compound 58, tert-butyl-4-(3-(1-methyl-1H-indazol-6-yl)-1,4-dihydrothieno[2′,3′:4,5]cyclopenta[1,2-c]pyrazol-6-yl)piperidine-1-carboxylate]?
Answer: pIC50 [1]: 7.00 to 7.52; pIC50 [2]: < 5.00; pIC50 [3]: < 5.00

Question: `Cn1ncc2ccc(-c3n[nH]c4c3Cc3sc(-c5ccc(CN6CCOCC6=O)cc5)cc3-4)cc21` [Compound 59, 4-(4-(3-(1-methyl-1H-indazol-6-yl)-1,4-dihydro-thieno[2′,3′:4,5]cyclopenta [1,2-c]pyrazol-6-yl)benzyl)morpholin-3-one] was tested. Which pIC50 [1] did it give?
Answer: > 7.52

Question: And the pIC50 [2]?
Answer: < 5.00

Question: What about the pIC50 [3] of the same molecule?
Answer: < 5.00

Question: How did the pIC50 [1] turn out when `Cn1ncc2ccc(-c3n[nH]c4c3Cc3sc(-c5csc(C(=O)N6CCOCC6)n5)cc3-4)cc21` [Compound 60, (4-(3-(1-methyl-1H-indazol-6-yl)-1,4-dihydro-thieno[2′,3′:4,5]cyclopenta [1,2-c]pyrazol-6-yl)thiazol-2-yl)(morpholino) methanone] was run?
Answer: > 7.52

Question: What about the pIC50 [2] of the same molecule?
Answer: 5.00 to 6.00

Question: And the pIC50 [3]?
Answer: 5.00 to 6.00

Question: What does the source list for `Cn1ncc2ccc(-c3n[nH]c4c3Cc3sc(-c5ccc(CN6CCCCC6=O)cc5)cc3-4)cc21` [Compound 61, 1-(4-(3-(l-methyl-1H-indazol-6-yl)-1,4-dihydro-thieno[2′,3′:4,5]cyclopenta [1,2-c]pyrazol-6-yl)benzyl)piperidin-2-one]?
Answer: pIC50 [1]: > 7.52; pIC50 [2]: < 5.00; pIC50 [3]: < 5.00

Question: How did the pIC50 [1] turn out when `Cn1ncc2ccc(-c3n[nH]c4c3Cc3sc(-c5ccc(CN6CCNC(=O)C6)cc5)cc3-4)cc21` [Compound 63, 4-(4-(3-(1-methyl-1H-indazol-6-yl)-1,4-dihydro-thieno[2′,3′:4,5]cyclopenta [1,2-c]pyrazol-6-yl)benzyl)piperazin-2-one] was run?
Answer: > 7.52

Question: What about the pIC50 [2] of the same molecule?
Answer: < 5.00

Question: What about the pIC50 [3] of the same molecule?
Answer: < 5.00

Question: What does the source list for `Cn1ncc2ccc(-c3n[nH]c4c3Cc3sc(-c5ccc(CN6CCCC6=O)cc5)cc3-4)cc21` [Compound 64, 1-(4-(3-(1-methyl-1H-indazol-6-yl)-1,4-dihydro-thieno[2′,3′:4,5]cyclopenta [1,2-c]pyrazol-6-yl)benzyl)pyrrolidin-2-one]?
Answer: pIC50 [1]: > 7.52; pIC50 [2]: < 5.00; pIC50 [3]: < 5.00

Question: `CC1C(=O)N(C)CCN1Cc1ccc(-c2cc3c(s2)Cc2c(-c4ccc5cnn(C)c5c4)n[nH]c2-3)cc1` (stereo not drawn) [Compound 65, 1,3-dimethyl-4-(4-(3-(1-methyl-1H-indazol-6-yl)-1,4-dihydrothieno [2′,3′:4,5]cyclopenta [1,2-c]pyrazol-6-yl)benzyl)piperazin-2-one] was tested. Which pIC50 [1] did it give?
Answer: > 7.52

Question: What about the pIC50 [2] of the same molecule?
Answer: < 5.00

Question: What about the pIC50 [3] of the same molecule?
Answer: < 5.00

Question: With `Cn1ncc2ccc(-c3n[nH]c4c3Cc3sc(-c5ccc(CCN6CCOCC6=O)cc5)cc3-4)cc21` [Compound 66, 4-(4-(3-(1-methyl-1H-indazol-6-yl)-1,4-dihydro-thieno[2′,3′:4,5]cyclopenta [1,2-c]pyrazol-6-yl)phenethyl)morpholin-3-one] as the molecule, how does the pIC50 [1] read?
Answer: > 7.52

Question: And the pIC50 [2]?
Answer: < 5.00

Question: What about the pIC50 [3] of the same molecule?
Answer: < 5.00

Question: With `Cn1ncc2ccc(-c3n[nH]c4c3Cc3sc(-c5ccc(CN6CCC(F)(F)C6)cc5)cc3-4)cc21` [Compound 67, 6-(4-((3,3-difluoro-pyrrolidin-1-yl)methyl)phenyl)-3-(1-methyl-1H-indazol-6-yl)-1,4-dihydro-thieno[2′,3′:4,5]cyclopenta [1,2-c]pyrazole] as the molecule, how does the pIC50 [1] read?
Answer: 6.52 to 7.00

Question: What about the pIC50 [2] of the same molecule?
Answer: < 5.00

Question: And the pIC50 [3]?
Answer: < 5.00

Question: `Cn1ncc2ccc(-c3n[nH]c4c3Cc3sc(-c5ccc(OCCN6CCOCC6)cc5)cc3-4)cc21` [Compound 69, 4-(2-(4-(3-(1-methyl-1H-indazol-6-yl)-1,4-dihydro-thieno[2′,3′:4,5]cyclopenta [1,2-c]pyrazol-6-yl)phenoxy)ethyl)morpholine] was tested. Which pIC50 [1] did it give?
Answer: > 7.52

Question: And the pIC50 [2]?
Answer: < 5.00

Question: And the pIC50 [3]?
Answer: < 5.00

Question: `Cn1ncc2ccc(-c3n[nH]c4c3Cc3sc(-c5cccc(OCCN6CCOCC6)c5)cc3-4)cc21` [Compound 70, 4-(2-(3-(3-(1-methyl-1H-indazol-6-yl)-1,4-dihydro-thieno[2′,3′:4,5]cyclopenta [1,2-c]pyrazol-6-yl)phenoxy)ethyl)morpholine] was tested. Which pIC50 [1] did it give?
Answer: 7.00 to 7.52

Question: And the pIC50 [2]?
Answer: < 5.00

Question: And the pIC50 [3]?
Answer: < 5.00

Question: How did the pIC50 [1] turn out when `Cn1ncc2ccc(-c3n[nH]c4c3Cc3sc(C#CCN5CCOCC5)cc3-4)cc21` [Compound 71, 4-(3-(3-(1-methyl-1H-indazol-6-yl)-1,4-dihydro-thieno[2′,3′:4,5]cyclopenta [1,2-c]pyrazol-6-yl)prop-2-yn-1-yl)morpholine] was run?
Answer: > 7.52

Question: What about the pIC50 [2] of the same molecule?
Answer: 5.00 to 6.00

Question: What about the pIC50 [3] of the same molecule?
Answer: < 5.00

Question: How did the pIC50 [1] turn out when `Cn1ncc2ccc(-c3n[nH]c4c3Cc3sc(-c5ccc(NC6CCOCC6)cc5)cc3-4)cc21` [Compound 72, N-(4-(3-(1-methyl-1H-indazol-6-yl)-1,4-dihydro-thieno[2′,3′:4,5]cyclopenta [1,2-c]pyrazol-6-yl)phenyl)tetrahydro-2H-pyran-4-amine] was run?
Answer: 7.00 to 7.52

Question: And the pIC50 [2]?
Answer: < 5.00

Question: What about the pIC50 [3] of the same molecule?
Answer: < 5.00

Question: How did the pIC50 [1] turn out when `CN(c1ccc(-c2cc3c(s2)Cc2c(-c4ccc5cnn(C)c5c4)n[nH]c2-3)cc1)C1CCOCC1` [Compound 73, N-methyl-N-(4-(3-(1-methyl-1H-indazol-6-yl)-1,4-dihydrothieno [2′,3′:4,5]cyclopenta [1,2-c]pyrazol-6-yl)phenyl)tetrahydro-2H-pyran-4-amine] was run?
Answer: 6.52 to 7.00

Question: And the pIC50 [2]?
Answer: < 5.00

Question: What about the pIC50 [3] of the same molecule?
Answer: < 5.00

Question: With `C[C@@H]1COCCN1Cc1ccc(-c2cc3c(s2)Cc2c(-c4ccc5cnn(C)c5c4)n[nH]c2-3)cc1` [Compound 74, (R)-3-methyl-4-(4-(3-(1-methyl-1H-indazol-6-yl)-1,4-dihydrothieno [2′,3′:4,5]cyclopenta [1,2-c]pyrazol-6-yl)benzyl)morpholine] as the molecule, how does the pIC50 [1] read?
Answer: > 7.52

Question: And the pIC50 [2]?
Answer: < 5.00

Question: What about the pIC50 [3] of the same molecule?
Answer: < 5.00

Source: patent US12448394B2, “Heterocyclic pyrazole derivatives as type III receptor tyrosine kinase inhibitors” (DEVELOPMENT CENTER FOR BIOTECHNOLOGY, priority 2019, dated 2025)
